Several values for one entry are separate records, joined by “and”; a condition that tells them apart may be missing. Equal entries are not always repeated. Where two headings read alike, the source gives them in different places.
How the values were obtained:
[1] = Lipophilicity HPLC determination (capacity factor k / log k); type: physicochemical; conditions: RP-HPLC, C18 column, isocratic, MeOH 70% / H2O 30%
Description: The procedure was performed under isocratic conditions with methanol as an organic modifier in the mobile phase using an end-capped non-polar C18 stationary RP column. […] The HPLC separation process was monitored by Empower™ 2 Chromatography Data Software, Waters 2009 (Waters Corp., Milford, MA, USA). […] The detection wavelength of 210 nm was chosen. The KI methanolic solution was used for the dead time (tD) determination. Retention times (tR) were measured in minutes. […] Log k, calculated from the capacity factor k, is used as the lipophilicity index converted to log P scale.

[2] = test system: photosynthetic electron transport (PET) in spinach chloroplasts; experiment: Inhibition of photosynthetic electron transport (PET) in spinach chloroplasts, DCPIP photoreduction; type: biochemical, Spinacia oleracea L.; conditions: DCPIP as electron acceptor, pH 7.2
Description: Chloroplasts were prepared from spinach (Spinacia oleracea L.) according to ref. [54]. The inhibition of photosynthetic electron transport (PET) in spinach chloroplasts was determined spectrophotometrically (Genesys 6, Thermo Scientific, USA) using an artificial electron acceptor 2,6-dichlorophenol-indophenol (DCIPP) according to ref. [55], and the rate of photosynthetic electron transport was monitored as a photoreduction of DCPIP. The measurements were carried out in phosphate buffer (0.02 mol/L, pH 7.2) containing sucrose (0.4 mol/L), MgCl2 (0.005 mol/L) and NaCl (0.015 mol/L). The chlorophyll content was 30 mg/L in these experiments, and the samples were irradiated (~100 W/m^2) from 10 cm distance with a halogen lamp (250 W) using a 4 cm water filter to prevent warming of the samples (suspension temperature 22 °C). The studied compounds were dissolved in DMSO due to their limited water solubility.

[3] = test system: Chlorella vulgaris; experiment: Reduction of chlorophyll content in green algae Chlorella vulgaris; type: cell-based, Chlorella vulgaris Beij.; conditions: 168 h; for inhibition at 100 µM: 100 μmol/L of the compound, 7-day cultivation, read-out: Chlorella vulgaris reduction of Chl. cont.; for IC50: read-out: Chlorella vulgaris IC50 (50% reduction of chlorophyll content), 7-day cultivation
Description: (photoperiod 16 h light/8 h dark; photosynthetically active radiation (PAR) 80 μmol/m^2s; pH 7.2). The effect of rhodanine compounds on algal chlorophyll (Chl) content was determined after 7-day cultivation in the presence of the compounds tested, expressing the response as percentage of the corresponding values obtained for control. The Chl content in the algal suspension was determined spectrophotometrically (Genesys 6, Thermo Scientific, USA) after extraction into methanol according to Wellburn [58].

[4] = test system: photosynthetic electron transport (PET) in spinach chloroplasts; set-up: method as in earlier work; conditions: standard DCMU; ref [56]; cited from earlier work
[5] = test system: Daucus carota L. var. sativa DC; set-up: method as in doi:10.1271/bbb.60.1368; conditions: 0.3 mmol/L; ref [13]; cited from earlier work
[6] = test system: seeds of Daucus carota L. var. sativa DC; set-up: method as in doi:10.1271/bbb.60.1368; conditions: 1 mmol/L; ref [13]; cited from earlier work
[7] = test system: seeds of Sesamum indicum; set-up: method as in doi:10.1271/bbb.60.1368; conditions: 1 mmol/L; ref [13]; cited from earlier work
[8] = test system: immature cells of Marchantia polymorpha; set-up: method as in doi:10.1584/jpestics.22.1; conditions: 1 mmol/L, within 90 hours; ref [14]; cited from earlier work
[9] = test system: photosynthetic electron transport; set-up: method as in doi:10.1584/jpestics.22.1; conditions: ref [14], read-out: IC50 of PET inhibition, cited from earlier work
[10] = test system: cotyledons of Brassica rapa L.; conditions: 0.3 mmol/L; ref [11]; cited from earlier work

## COc1cccc(/C=C2\SC(=S)NC2=O)c1 [Compound 4b, (5Z)-5-(3-Methoxybenzylidene)-2-thioxo-1,3-thiazolidin-4-one]
[1]
  log k: 0.5713
[2]
  IC50: 221 µM

## O=C1NC(=S)S/C1=C\c1cccc(O)c1 [Compound 2b, (5Z)-5-(3-Hydroxybenzylidene)-2-thioxo-1,3-thiazolidin-4-one]
[1]
  log k: 0.2744
[2]
  IC50: 444 µM
[3]
  inhibition at 100 µM: 9.6%

## O=C1NC(=S)S/C1=C\c1ccccc1Cl [Compound 9a, (5Z)-5-(2-Chlorobenzylidene)-2-thioxo-1,3-thiazolidin-4-one]
[1]
  log k: 0.9019
[2]
  IC50: 53.3 µM

## O=C1NC(=S)S/C1=C\c1ccccc1F [Compound 8a, (5Z)-5-(2-Fluorobenzylidene)-2-thioxo-1,3-thiazolidin-4-one]
[1]
  log k: 0.8108
[2]
  IC50: 99.5 µM

## O=C1NC(=S)S/C1=C\c1ccc([N+](=O)[O-])cc1 [Compound 7c, (5Z)-5-(4-Nitrobenzylidene)-2-thioxo-1,3-thiazolidin-4-one]
[1]
  log k: 0.2436
[2]
  IC50: 20.1 µM
[3]
  inhibition at 100 µM: 87.1%
  IC50: 21.9 µM

## O=C1NC(=S)S/C1=C\c1cccnc1 [Compound 13, (5Z)-5-(Pyridin-3-ylmethylidene)-2-thioxo-1,3-thiazolidin-4-one]
[1]
  log k: 0.4539

## O=C1/C(=C/c2ccc([N+](=O)[O-])cc2)SC(=S)N1CCO [Compound 11c, (5Z)-3-(2-Hydroxyethyl)-5-(4-nitrobenzylidene)-2-thioxo-1,3-thiazolidin-4-one]
[1]
  log k: 0.6349

## O=C1NC(=S)S/C1=C\c1ccccn1 [Compound 12, (5Z)-5-(Pyridin-2-ylmethylidene)-2-thioxo-1,3-thiazolidin-4-one]
[1]
  log k: 0.4864

## O=C1NC(=S)S/C1=C\c1ccc(Br)cc1 [Compound 10c, (5Z)-5-(4-Bromobenzylidene)-2-thioxo-1,3-thiazolidin-4-one]
[1]
  log k: 0.6940
[2]
  IC50: 3 µM

## O=C1NC(=S)S/C1=C\c1cccc([N+](=O)[O-])c1 [Compound 7b, (5Z)-5-(3-Nitrobenzylidene)-2-thioxo-1,3-thiazolidin-4-one]
[1]
  log k: 0.2399
[2]
  IC50: 16.9 µM
[3]
  inhibition at 100 µM: 85.7%
  IC50: 4.4 µM

## O=C1NC(=S)S/C1=C\c1cccc(Cl)c1 [Compound 9b, (5Z)-5-(3-Chlorobenzylidene)-2-thioxo-1,3-thiazolidin-4-one]
[1]
  log k: 1.0270
[2]
  IC50: 17 µM

## O=C1NC(=S)S/C1=C\c1ccccc1[N+](=O)[O-] [Compound 7a, (5Z)-5-(2-Nitrobenzylidene)-2-thioxo-1,3-thiazolidin-4-one]
[1]
  log k: 0.2254
[2]
  IC50: 428 µM

## CN(C)C(=O)Nc1ccc(Cl)c(Cl)c1 [DCMU, 3-(3,4-dichlorophenyl)-1,1-dimethylurea]
[4]
  IC50: ~1.9 µM and 1.9 µM
[3]
  IC50: ~7.3 µM

## O=C1NC(=S)S/C1=C\c1ccccc1Br [Compound 10a, (5Z)-5-(2-Bromobenzylidene)-2-thioxo-1,3-thiazolidin-4-one]
[1]
  log k: 0.9368
[2]
  IC50: 18.1 µM

## O=C1NC(=S)S/C1=C\c1ccc(O)cc1O [Compound 3, (5Z)-5-(2,4-Hydroxybenzylidene)-2-thioxo-1,3-thiazolidin-4-one]
[1]
  log k: 0.2776
[3]
  inhibition at 100 µM: 48.5%
  IC50: 108 µM

## O=C1/C(=C/c2cccc([N+](=O)[O-])c2)SC(=S)N1CCO [Compound 11b, (5Z)-3-(2-Hydroxyethyl)-5-(3-nitrobenzylidene)-2-thioxo-1,3-thiazolidin-4-one]
[1]
  log k: 0.6077

## COc1ccc(/C=C2\SC(=S)NC2=O)cc1 [Compound 4c, (5Z)-5-(4-Methoxybenzylidene)-2-thioxo-1,3-thiazolidin-4-one]
[1]
  log k: 0.5425
[2]
  IC50: 174 µM

## O=C1NC(=S)S/C1=C\c1ccccc1O [Compound 2a, (5Z)-5-(2-Hydroxybenzylidene)-2-thioxo-1,3-thiazolidin-4-one]
[1]
  log k: 0.4664
[2]
  IC50: 369 µM
[3]
  inhibition at 100 µM: 59%
  IC50: 59.4 µM

## O=C(O)CN1C(=O)CSC1=S [rhodanine-N-acetic acid]
[5]
  inhibition of growth of Daucus carota: strongly inhibited
[6]
  inhibition of germination of seeds of Daucus carota: inhibited
[7]
  inhibition of germination of seeds of Sesamum indicum: inhibited

## O=C1NC(=S)S/C1=C\c1ccco1 [Compound 16, (5Z)-5-(Furan-2-ylmethylidene)-2-thioxo-1,3-thiazolidin-4-one]
[1]
  log k: 0.4656

## O=C1NC(=S)S/C1=C\c1cccc(Br)c1 [Compound 10b, (5Z)-5-(3-Bromobenzylidene)-2-thioxo-1,3-thiazolidin-4-one]
[1]
  log k: 1.0820
[2]
  IC50: 5.2 µM

## O=C1NC(=S)S/C1=C\c1ccncc1 [Compound 14, (5Z)-5-(Pyridin-4-ylmethylidene)-2-thioxo-1,3-thiazolidin-4-one]
[1]
  log k: 0.1878

## O=C1NC(=S)S/C1=C\c1cnccn1 [Compound 15, (5Z)-5-(Pyrazin-2-ylmethylidene)-2-thioxo-1,3-thiazolidin-4-one]
[1]
  log k: 0.2359
[2]
  IC50: 216 µM
[3]
  inhibition at 100 µM: 1.8%

## O=C1NC(=S)S/C1=C\c1ccc(Cl)cc1 [Compound 9c, (5Z)-5-(4-Chlorobenzylidene)-2-thioxo-1,3-thiazolidin-4-one]
[1]
  log k: 0.5936
[2]
  IC50: 6 µM
[3]
  inhibition at 100 µM: 84.8%
  IC50: 1.3 µM

## CN(C)c1ccc(/C=C2\SC(=S)NC2=O)cc1 [Compound 6, (5Z)-5-[(4-Dimethylamino)benzylidene]-2-thioxo-1,3-thiazolidin-4-one]
[1]
  log k: 0.6466
[3]
  inhibition at 100 µM: 12.6%

## O=C1NC(=S)S/C1=C\c1ccc(F)cc1 [Compound 8c, (5Z)-5-(4-Fluorobenzylidene)-2-thioxo-1,3-thiazolidin-4-one]
[1]
  log k: 0.7909
[2]
  IC50: 63.5 µM

## O=C1CSC(=S)N1 [rhodanine]
[8]
  inhibition of growth of immature cells: completely inhibited
[5]
  inhibition of growth of Daucus carota: strongly inhibited
[6]
  inhibition of germination of seeds of Daucus carota: inhibited
[9]; assay done after illumination for 3 min
  IC50: 100 µM
[9]; normal 1 min assay
  IC50: ~1000 µM
[7]
  inhibition of germination of seeds of Sesamum indicum: inhibited
[10]
  inhibition of chlorophyll synthesis in cotyledons: strongly inhibited

## O=C1/C(=C/c2ccccc2[N+](=O)[O-])SC(=S)N1CCO [Compound 11a, (5Z)-3-(2-Hydroxyethyl)-5-(2-nitrobenzylidene)-2-thioxo-1,3-thiazolidin-4-one]
[1]
  log k: 0.4751
[2]
  IC50: 127 µM

## O=C1NC(=S)S/C1=C\c1cccc(F)c1 [Compound 8b, (5Z)-5-(3-Fluorobenzylidene)-2-thioxo-1,3-thiazolidin-4-one]
[1]
  log k: 0.8204
[2]
  IC50: 23.8 µM

## O=C1NC(=S)S/C1=C\c1ccc(O)cc1 [Compound 2c, (5Z)-5-(4-Hydroxybenzylidene)-2-thioxo-1,3-thiazolidin-4-one]
[1]
  log k: 0.2641
[3]
  inhibition at 100 µM: 29.8%

## COc1cc(/C=C2\SC(=S)NC2=O)ccc1O [Compound 5, (5Z)-5-(4-Hydroxy-3-methoxybenzylidene)-2-thioxo-1,3-thiazolidin-4-one]
[1]
  log k: 0.3553
[3]
  inhibition at 100 µM: 19.4%

## COc1ccccc1/C=C1\SC(=S)NC1=O [Compound 4a, (5Z)-5-(2-Methoxybenzylidene)-2-thioxo-1,3-thiazolidin-4-one]
[1]
  log k: 0.5867
